Assay [1] relates to Tyrosine-protein kinase ABL1 (Homo sapiens), P00519 [T315I]. In words: Inhibition of human truncated ABL T315I mutant expressed in baculovirus assessed as substrate phosphorylation using fluorescence-labelled peptides as substrate at 2 uM after 90 mins by microfluidic peptide phosphorylation assay.
The target of assay [2] is T1, Serine/threonine-protein kinase D3 (Homo sapiens) (UniProt O94806).
T1 sequence (whole entry): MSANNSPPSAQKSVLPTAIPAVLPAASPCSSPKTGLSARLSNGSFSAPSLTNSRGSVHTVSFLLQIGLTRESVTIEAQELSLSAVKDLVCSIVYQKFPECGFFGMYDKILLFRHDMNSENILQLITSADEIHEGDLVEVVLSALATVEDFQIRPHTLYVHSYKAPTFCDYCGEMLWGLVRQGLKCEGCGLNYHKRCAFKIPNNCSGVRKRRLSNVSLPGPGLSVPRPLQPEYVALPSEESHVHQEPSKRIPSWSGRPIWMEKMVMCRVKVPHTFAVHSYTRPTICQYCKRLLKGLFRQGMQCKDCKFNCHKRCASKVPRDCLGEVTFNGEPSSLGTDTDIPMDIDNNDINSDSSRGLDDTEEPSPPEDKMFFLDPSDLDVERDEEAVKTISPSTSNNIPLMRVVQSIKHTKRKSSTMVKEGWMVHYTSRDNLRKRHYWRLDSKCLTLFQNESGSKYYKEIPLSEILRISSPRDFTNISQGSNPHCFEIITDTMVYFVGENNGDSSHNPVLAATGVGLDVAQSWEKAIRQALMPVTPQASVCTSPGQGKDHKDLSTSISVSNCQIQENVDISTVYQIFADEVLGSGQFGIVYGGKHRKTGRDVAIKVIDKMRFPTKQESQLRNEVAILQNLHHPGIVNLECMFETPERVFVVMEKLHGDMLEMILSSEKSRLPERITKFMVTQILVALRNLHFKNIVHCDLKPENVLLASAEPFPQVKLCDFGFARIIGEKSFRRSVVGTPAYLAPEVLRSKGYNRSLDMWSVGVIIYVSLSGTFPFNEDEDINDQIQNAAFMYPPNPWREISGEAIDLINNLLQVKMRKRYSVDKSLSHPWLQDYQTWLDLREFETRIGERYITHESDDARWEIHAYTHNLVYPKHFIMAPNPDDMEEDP
The conditions noted are these: 0.1 uM.
Description: Inhibition of human full length PKD3 expressed in baculovirus assessed as substrate phosphorylation using fluorescence-labelled peptides as substrate at 0.1 uM after 90 mins by microfluidic peptide phosphorylation assay

Assay [3] has as its system T2, Receptor-type tyrosine-protein kinase FLT3 (Homo sapiens), P36888 [D835Y].
T2 sequence (whole entry): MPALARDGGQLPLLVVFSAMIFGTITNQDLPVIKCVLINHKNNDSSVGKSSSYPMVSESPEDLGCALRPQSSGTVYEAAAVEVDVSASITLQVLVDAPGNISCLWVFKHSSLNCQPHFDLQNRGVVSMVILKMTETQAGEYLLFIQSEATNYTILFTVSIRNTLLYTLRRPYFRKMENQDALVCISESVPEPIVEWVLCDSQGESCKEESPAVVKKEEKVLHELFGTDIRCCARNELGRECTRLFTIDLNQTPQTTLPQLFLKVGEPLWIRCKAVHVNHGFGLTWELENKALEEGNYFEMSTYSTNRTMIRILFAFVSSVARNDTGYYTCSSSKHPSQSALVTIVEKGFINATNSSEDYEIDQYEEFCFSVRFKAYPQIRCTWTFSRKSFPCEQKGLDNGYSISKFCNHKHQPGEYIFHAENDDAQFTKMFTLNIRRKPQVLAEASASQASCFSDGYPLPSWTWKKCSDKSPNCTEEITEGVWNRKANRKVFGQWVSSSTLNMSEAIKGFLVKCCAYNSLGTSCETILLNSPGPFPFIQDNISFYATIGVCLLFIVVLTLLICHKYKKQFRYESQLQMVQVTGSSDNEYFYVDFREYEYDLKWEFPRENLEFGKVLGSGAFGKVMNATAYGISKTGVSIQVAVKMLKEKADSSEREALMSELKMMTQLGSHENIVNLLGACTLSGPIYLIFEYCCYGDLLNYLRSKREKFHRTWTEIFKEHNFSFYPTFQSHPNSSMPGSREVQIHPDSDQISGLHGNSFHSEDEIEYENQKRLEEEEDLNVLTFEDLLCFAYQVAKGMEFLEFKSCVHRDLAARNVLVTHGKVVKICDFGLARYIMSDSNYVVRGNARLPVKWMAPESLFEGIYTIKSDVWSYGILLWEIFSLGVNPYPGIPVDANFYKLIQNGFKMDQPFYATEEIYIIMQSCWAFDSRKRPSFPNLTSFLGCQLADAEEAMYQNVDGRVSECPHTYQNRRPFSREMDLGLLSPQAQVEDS
Nature of the assay: Inhibition of human FLT3 D835Y mutant catalytic domain expressed in baculovirus assessed as substrate phosphorylation using fluorescence-labelled peptides as substrate at 0.2 uM after 90 mins by microfluidic peptide phosphorylation assay.

Assay [4] has as its target T3, Cytoplasmic tyrosine-protein kinase BMX (Homo sapiens) (UniProt P51813).
T3 sequence (whole entry): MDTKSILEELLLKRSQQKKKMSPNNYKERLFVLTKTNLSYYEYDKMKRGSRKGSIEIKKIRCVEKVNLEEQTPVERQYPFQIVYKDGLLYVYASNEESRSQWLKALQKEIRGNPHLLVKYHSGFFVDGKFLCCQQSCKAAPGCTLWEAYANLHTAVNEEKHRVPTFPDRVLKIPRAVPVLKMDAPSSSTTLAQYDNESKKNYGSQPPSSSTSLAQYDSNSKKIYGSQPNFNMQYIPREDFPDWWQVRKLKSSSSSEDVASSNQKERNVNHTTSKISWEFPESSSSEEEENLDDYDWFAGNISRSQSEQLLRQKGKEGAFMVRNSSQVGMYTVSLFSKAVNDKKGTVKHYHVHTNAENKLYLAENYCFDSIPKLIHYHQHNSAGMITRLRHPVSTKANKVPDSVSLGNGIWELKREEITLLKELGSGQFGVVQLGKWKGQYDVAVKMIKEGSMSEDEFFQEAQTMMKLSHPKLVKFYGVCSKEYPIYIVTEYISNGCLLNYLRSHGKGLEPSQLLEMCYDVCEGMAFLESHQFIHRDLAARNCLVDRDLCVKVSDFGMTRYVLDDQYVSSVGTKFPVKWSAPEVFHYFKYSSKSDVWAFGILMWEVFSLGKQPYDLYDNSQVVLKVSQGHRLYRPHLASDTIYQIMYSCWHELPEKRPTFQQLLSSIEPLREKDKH
Nature of the assay: Inhibition of human full length BMX expressed in baculovirus assessed as substrate phosphorylation using fluorescence-labelled peptides as substrate at 9 uM after 90 mins by microfluidic peptide phosphorylation assay.

For assay [5], the target named is Protein kinase C eta type (Homo sapiens) (UniProt P24723). In words: Inhibition of human truncated PKC eta expressed in baculovirus assessed as substrate phosphorylation using fluorescence-labelled peptides as substrate at 8 uM after 90 mins by microfluidic peptide phosphorylation assay.
Protein kinase C eta type (Homo sapiens), sequence (P24723 whole entry, the tested form may be a part): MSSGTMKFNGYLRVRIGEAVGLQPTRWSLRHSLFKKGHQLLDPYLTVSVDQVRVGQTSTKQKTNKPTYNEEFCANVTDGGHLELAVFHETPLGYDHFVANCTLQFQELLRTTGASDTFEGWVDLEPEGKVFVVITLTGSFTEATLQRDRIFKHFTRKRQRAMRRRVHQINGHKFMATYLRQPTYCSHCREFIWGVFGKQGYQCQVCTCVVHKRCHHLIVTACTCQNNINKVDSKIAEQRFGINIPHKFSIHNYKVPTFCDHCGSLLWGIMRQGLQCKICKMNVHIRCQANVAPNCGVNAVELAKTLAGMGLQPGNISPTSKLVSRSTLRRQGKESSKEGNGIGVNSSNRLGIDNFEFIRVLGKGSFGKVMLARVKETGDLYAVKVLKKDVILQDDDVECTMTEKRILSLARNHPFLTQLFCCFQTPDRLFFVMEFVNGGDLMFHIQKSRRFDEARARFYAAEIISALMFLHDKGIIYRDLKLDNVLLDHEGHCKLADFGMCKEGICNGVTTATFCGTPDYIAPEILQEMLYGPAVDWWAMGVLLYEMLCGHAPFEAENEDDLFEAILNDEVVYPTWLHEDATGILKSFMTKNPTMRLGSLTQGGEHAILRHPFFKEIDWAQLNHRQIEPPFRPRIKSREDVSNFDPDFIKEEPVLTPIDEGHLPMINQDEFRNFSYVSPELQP
Assay [6] concerns Tyrosine-protein kinase ABL1 (Homo sapiens), P00519 [T315I]. Nature of the assay: Inhibition of human truncated ABL T315I mutant expressed in baculovirus assessed as substrate phosphorylation using fluorescence-labelled peptides as substrate at 420 uM after 90 mins by microfluidic peptide phosphorylation assay.

The source of these data is ChEMBL document CHEMBL3132769, “Fragment growing to retain or alter the selectivity of anchored kinase hinge-binding fragments” (Medchemcomm, 2014).

Take `NC1CCN(c2ncnc3[nH]ccc23)CC1`: in assay [1], the inhibition came out at 1%.

The compound `C[C@H](CN(C)C)Oc1nc(Nc2cc3cccc(Cl)c3cn2)cnc1C#N` registered an inhibition in assay [2] of 0%.

As for `Clc1ccc(C2(c3ccc(-c4ncnc5[nH]cnc45)cc3)CCNCC2)cc1`, the inhibition in assay [3] is 16%.

`NCC1CN(c2ncnc3[nH]c4cnccc4c23)CCO1` (stereo unspecified): the inhibition in assay [4] was determined as 11%.

As to `NCC1CCN(c2ncnc3[nH]ccc23)CC1`, in assay [5], the inhibition came to 82%.

With `c1nc(N2CCOCC2)c2nc[nH]c2n1`, the inhibition in assay [6] is 73%.
